Assays:
[1] = test system: Vibrio campbellii BAA 1119 (AI-2); test: microbe, parasite or virus in culture; assay type: cell-based; conditions: for EC50: Vibrio campbellii, BAA1119, 16 h, read-out: EC50 (concentration that halved the communication); for SI (selectivity index): ratio IC50 (viability) / EC50 (communication), BAA 1119
From the text: (§1) Commercially available strains of Vibrio campbellii were used to evaluate the ability of flavonoids and their derivatives to inhibit bacterial quorum sensing. V. campbellii uses two types of autoinducing molecules for its communication—N-acyl-homoserine lactones (Autoinducer I, AI-1, strain BAA 1118) and furanosyl borate diester (Autoinducer II, AI-2, strain BAA 1119). AI-1-based communication is mainly used by Gram-negative bacteria, while AI-2-based communication is found in both Gram-negative and Gram-positive bacteria. The mutant strains of V. campbellii BA1118 and BA1119 respond only to AI-1 or AI-2, respectively, and the response to the respective AI concentration is measured as luminescence. The higher the AI concentration, the higher the luminescence signal. The ability to inhibit the communication was expressed as the selectivity index (SI), calculated as the ratio between the concentration that halved the viability (IC50) and the concentration that halved the communication (EC50) of the respective V. campbellii strains. […] The antimicrobial activity of quorum-sensing inhibitors is undesirable because it creates a selection pressure and can lead to the development of resistance.
(§2) The inhibition of bacterial extracellular communication was measured using Vibrio campbellii strains BAA-1118 and BAA-1119. The experiment was performed according to the methods of Szemerédi et al.. Briefly, 5 × 10^5 CFU/mL (colony-forming units per milliliter) were seeded in an Autoinducer Bioassay medium (NaCl 17.5 g/L, MgSO4 12.3 g/L, Casamino acids 2 g/L, 10 mL of 1 M potassium phosphate pH 7.0, 10 mL of 0.1 M L-arginine, and 10 mL of glycerol in 970 mL of deionized water) in a 96-well plate. Immediately, the tested compounds were added at the final concentration of 0.2–200 µM and luminescence was recorded for 16 h by a SpectraMax i3x microplate reader set at 30 °C, an integration time of 10,000 ms, and shaking for 60 s before measurement. […] The selectivity index was calculated as the […]. The EC50 and IC50 were calculated using GraphPad Prism software version 5.00 for Windows with a nonlinear regression curve fit.

[2] = test system: Vibrio campbellii BAA 1118 (AI-1); test: microbe, parasite or virus in culture; assay type: cell-based; conditions: for EC50: Vibrio campbellii, BAA1118, 16 h, read-out: EC50 (concentration that halved the communication); for SI (selectivity index): ratio IC50 (viability) / EC50 (communication), BAA 1118
From the text: as §1, §2

[3] = test system: Vibrio campbellii BAA 1119 (AI-2); test: Viability of the quorum-sensing reporter culture (resazurin assay), AI-2 strain; assay type: cell-based; conditions: BAA1119, V. campbellii BAA 1119, resazurin assay, read-out: IC50 (concentration that halved the viability)
From the text: as §1, §2

[4] = test system: Vibrio campbellii BAA 1118 (AI-1); test: Viability of the quorum-sensing reporter culture (resazurin assay), AI-1 strain; assay type: cell-based; conditions: BAA1118, V. campbellii BAA 1118, resazurin assay, read-out: IC50 (concentration that halved the viability)
From the text: as §1, §2

[5] = Ferric reducing antioxidant power (FRAP); conditions: Fe2+ equivalents
Protocol: (§3) To further elucidate how halogenation affects other properties of the flavonoids studied, their 2,2′-azino-bis-(3-ethylbenzothiazoline-6-sulfonic acid) cation (ABTS) and 1,1-diphenyl-2-picrylhydrazyl (DPPH) radical scavenging, the Folin–Ciocalteu reagent (FCR) reducing, the ferric-reducing antioxidant power (FRAP), and the anti-lipoperoxidation activities were evaluated by in vitro methods (Supplementary Information Tables S1 and S2).
(§4) The antiradical activity was evaluated by the ability to scavenge ABTS and DPPH radicals. Reducing capacity was assessed by the ability to reduce the Folin–Ciocalteu reagent (FCR) and ferric ions (FRAP). The ability to inhibit lipid peroxidation of pooled male rat microsomal liver membranes induced by tert-butyl hydroperoxide was also evaluated and the results were expressed as IC50 values.

[6] = test system: doxorubicin-resistant human ovarian carcinoma (HOC/DOX); test: Cytotoxicity (resazurin assay, 72 h); assay type: cell-based; conditions: for IC50: Homo sapiens, 72 h, resazurin assay; for SI (selectivity index): ratio IC50 for HDF / IC50 for HOC/DOX
Protocol: (§5) The cytotoxicity of flavonoids and their halogenated derivatives was determined as their ability to decrease the viability of human dermal fibroblasts (HDF) and doxorubicin-resistant human ovarian carcinomas (HOC/DOX). Both cell lines were cultivated in Dulbecco’s Modified Eagle’s Medium supplemented with fetal bovine serum (FBS, 10% v/v) and 1 × antibiotic antimycotic solution and incubated at 37 °C in the atmosphere of 5% CO2. The experiment was performed according to a previously published method. Briefly, 1 × 10^5 cells/mL were seeded into a 96-well plate (100 µL/well). After 24 h, flavonoids and their derivatives were administered at the concentration range of 31.25–500 µM. After 72 h, the viability was determined by resazurin assay (0.03 mg/mL of resazurin in PBS), where the fluorescence was measured after 2 h of incubation by the SpectraMax i3x microplate reader at a wavelength of 560/590 nm (excitation/emission). The concentration inhibiting half of the population (IC50) was determined using nonlinear regression in GraphPad Prism software. The selectivity index was calculated as the ratio between the IC50 for HDF (control, non-cancerous cells) and the IC50 for HOC/DOX (cancer cells).

[7] = test system: human dermal fibroblasts (HDF); test: Cytotoxicity (resazurin assay, 72 h); assay type: cell-based; conditions: Fibroblast
Protocol: as §5

[8] = test system: lipopolysaccharide-stimulated macrophages (RAW 264.7); test: Inhibition of nitric oxide production (Griess reagent); assay type: cell-based, murine; conditions: Mus musculus, RAW264.7; LPS 100 ng/mL, 24 h; highest tested concentration 100 µM; read-out: NO Production IC50
Protocol: The anti-inflammatory activity of the tested flavonolignans was determined as the ability to reduce nitric oxide production by murine macrophages (RAW 264.7) stimulated by bacterial lipopolysaccharides, as previously described. […] For the experiment, 1 × 10^6 cells/mL was seeded into the 96-well plate (100 µL/well). […] After 24 h, the medium was mixed with Griess reagent (0.04 g/mL), prepared freshly in deionized water at the ratio of 1:1. The absorbance was measured after 15 min at 540 nm by the SpectraMax i3x microplate reader. Cell viability was determined by resazurin assay.

[9] = test system: multidrug-resistant S. aureus; test: Sensitization of antibiotic-resistant bacteria (compound plus breakpoint antibiotic concentration); assay type: cell-based, Staphylococcus aureus; conditions: flavonoid 40 µM, 24 h; for Effect on viability in combination with chloramphenicol: chloramphenicol 8 mg/L
Protocol: (§6) Clinically relevant antibiotics were selected for sensitization testing according to the European Committee on Antimicrobial Susceptibility Testing (EUCAST). Neither colistin and imipenem at breakpoint concentrations (according to EUCAST, […] and […]) affected the growth of the multidrug-resistant clinical strain of P. aeruginosa. Similarly, neither chloramphenicol and gentamicin at breakpoint concentrations ([…], respectively) affected the multidrug-resistant clinical strain of S. aureus. Flavonoids and their derivatives (1–40 µM) were used in combination therapy, along with the breakpoint concentration of antibiotics. After co-incubation, the minimum inhibitory concentration of flavonoids inhibiting the visible growth of bacteria was determined (Table 2).
(§7) Clinical isolates of P. aeruginosa and S. aureus were obtained from the General University Hospital in Prague (Prague, Czech Republic). P. aeruginosa was resistant to ciprofloxacin, oxacillin, ticarcillin, colistin, gentamicin, and imipenem. S. aureus was resistant to ciprofloxacin, gentamicin, erythromycin, chloramphenicol, clindamycin, oxacillin, cefotaxime, and vancomycin. Bacteria were cultivated in Mueller–Hinton broth (MH broth, Merck). The susceptibility of the bacteria was evaluated by the minimum inhibitory concentrations (MIC). The MIC of derivatives in the presence of the antibiotic cut-off concentration was determined according to ISO 20776-1: 2020. The antibiotic cut-off concentration was chosen according to the European Committee on Antimicrobial Susceptibility Testing (EUCAST, Clinical breakpoints—bacteria (ver. 11.0), 1 January 2021). The 40 µM concentration of the derivatives was chosen as the highest concentration for the tests. Cell viability was determined by measuring absorbance (A590 nm) after 24 h incubation at 37 °C, 150 rpm.

[10] = test system: multidrug-resistant P. aeruginosa; test: as above; assay type: cell-based, Pseudomonas aeruginosa; conditions: flavonoid 40 µM, 24 h; for Effect on viability in combination with colistin: colistin 2 mg/L; for Effect on viability in combination with imipenem: imipenem 4 mg/L; for Effect on viability in combination with imipenem: key: -: no effect (100% viability) was observed up to the highest flavonolignan concentration tested (>40 µM); reversion of resistance: the compound reversed the resistant phenotype to a sensitive one
Protocol: as §6, §7

[11] = test system: pooled male rat microsomal liver membranes; test: Inhibition of lipid peroxidation induced by tert-butyl hydroperoxide; assay type: biochemical; conditions: male rat microsomes, read-out: ILP IC50
Protocol: as §4

[12] = DPPH radical scavenging; conditions: 1,1-diphenyl-2-picrylhydrazyl radical scavenging
Protocol: as §3, §4

[13] = ABTS cation radical scavenging; conditions: vitamin C equivalent antioxidant capacity
Protocol: as §3, §4

[14] = Folin-Ciocalteu reagent reduction; conditions: gallic acid equivalents
Protocol: as §3, §4

Row | IC50 [12] | SMILES | EC50 [1] | SI (selectivity index) [1] | EC50 [2] | SI (selectivity index) [2] | IC50 [4] | FRAP [Fe2+eq] [5] | IC50 [6] | SI (selectivity index) [6] | IC50 [7] | IC50 [8] | Effect on viability in combination with chloramphenicol [9] | Effect on viability in combination with colistin [10] | Effect on viability in combination with imipenem [10] | ABTS [CEAC] [13] | FCR [GAE] [14] | other results
1 |  | O=c1[nH]cc(F)c(=O)[nH]1 [5-Fluorouracil, reference compound] | 0.00044 µM | 7.8 ± 0.5 | 0.00039 µM | 1.73 ± 0.05 | 0.00068 µM |  |  |  |  |  |  |  |  |  |  | IC50 [3]: 0.00341 µM
2 |  | [Fe+2] [Fe2+, reference compound] |  |  |  |  |  | 1.01 Fe2+eq |  |  |  |  |  |  |  |  |  | 
3 |  | COc1ccc2c(c1)c(CC(=O)O)c(C)n2C(=O)c1ccc(Cl)cc1 [Indomethacin, reference compound] |  |  |  |  |  |  | 17.1 ± 0.6 µM | 12.94 | 222 µM | 51.3 ± 0.6 µM |  |  |  |  |  | 
4 |  | CC1(C)[C@H](C(=O)O)N2C(=O)C[C@H]2S1(=O)=O [Sulbactam, reference compound] |  |  |  |  |  |  |  |  |  |  | reversion of resistance | - | - |  |  | Effect on viability in combination with gentamicin ([9]; gentamicin 1 mg/L): -
5 | 3.5 µM | Cc1c(C)c2c(c(C)c1O)CCC(C)(C(=O)O)O2 (stereo not drawn) [Trolox, reference compound] |  |  |  |  |  |  |  |  |  |  |  |  |  |  |  | IC50 [11]: 32.7 ± 2.4 µM
6 | 97.1 µM | COc1cc([C@@H]2Oc3cc([C@H]4Oc5c(I)c(O)cc(O)c5C(=O)[C@@H]4O)ccc3O[C@H]2CO)ccc1O [compound 24, 8-iodosilybin B] |  |  |  |  |  | 0.079 ± 0.002 Fe2+eq |  |  |  |  |  |  |  | 0.47 ± 0.04 CEAC | 1.01 ± 0.02 GAE | 
7 | > 500 µM | COc1cc([C@H]2Oc3cc([C@H]4Oc5c(I)c(O)c(I)c(O)c5C(=O)[C@@H]4O)ccc3O[C@@H]2CO)ccc1O [compound 25, 6,8-diiodosilybin A] |  |  |  |  |  | 0.053 ± 0.003 Fe2+eq |  |  |  |  |  |  |  | 0.41 ± 0.01 CEAC | 0.95 ± 0.01 GAE | 
8 | 249 µM | COc1cc([C@@H]2Oc3cc([C@H]4Oc5c(I)c(O)c(I)c(O)c5C(=O)[C@@H]4O)ccc3O[C@H]2CO)ccc1O [compound 26, 6,8-diiodosilybin B] |  |  |  |  |  | 0.048 ± 0.001 Fe2+eq |  |  |  |  |  |  |  | 0.48 ± 0.01 CEAC | 0.84 ± 0.04 GAE | 
9 |  | O=C(O)c1cc(O)c(O)c(O)c1 [gallic acid, reference compound] |  |  |  |  |  |  |  |  |  |  |  |  |  |  | 1.00 GAE | 
10 |  | O=C1O[C@H]([C@@H](O)CO)C(O)=C1O [vitamin C, reference compound] |  |  |  |  |  |  |  |  |  |  |  |  |  | 1.01 CEAC |  | 

Row | SMILES | IC50 [12] | EC50 [1] | SI (selectivity index) [1] | EC50 [2] | SI (selectivity index) [2] | IC50 [4] | FRAP [Fe2+eq] [5] | IC50 [6] | SI (selectivity index) [6] | IC50 [7] | IC50 [8] | Effect on viability in combination with chloramphenicol [9] | Effect on viability in combination with colistin [10] | Effect on viability in combination with imipenem [10] | ABTS [CEAC] [13] | FCR [GAE] [14] | other results
11 | COc1cc([C@H]2Oc3cc([C@H]4Oc5c(Br)c(O)cc(O)c5C(=O)[C@@H]4O)ccc3O[C@@H]2CO)ccc1O [compound 19, 8-bromosilybin A] | > 500 µM | 4.6 ± 0.3 µM | ≥43.1 ± 2.6 | 33.9 ± 1.8 µM | 3.4 ± 0.3 | 115 ± 5.4 µM | 0.057 ± 0.002 Fe2+eq | 202 µM | 0.38 | 77.4 ± 1.1 µM | 36.4 ± 1.7 µM | - | - | - | 0.68 ± 0.03 CEAC | 1.01 ± 0.02 GAE | IC50 [3]: > 200 µM
12 | COc1cc([C@@H]2Oc3cc([C@H]4Oc5c(Br)c(O)cc(O)c5C(=O)[C@@H]4O)ccc3O[C@H]2CO)ccc1O [compound 20, 8-bromosilybin B] | > 500 µM | 4.7 ± 0.2 µM | ≥42.9 ± 2.1 | 44.2 ± 0.7 µM | 2.9 ± 0.1 | 127 ± 4 µM | 0.056 ± 0.002 Fe2+eq | 227 µM | 0.43 | 97.9 ± 4.4 µM | 38 ± 2.2 µM | - | - | - | 0.47 ± 0.01 CEAC | 1.10 ± 0.02 GAE | 
13 | COc1cc([C@@H]2Oc3cc([C@H]4Oc5cc(O)c(Cl)c(O)c5C(=O)[C@@H]4O)ccc3O[C@H]2CO)ccc1O [compound 28, 6-Chlorosilybin B] | > 500 µM | 3.2 ± 0.2 µM | ≥62.6 ± 3.6 | 114 ± 5 µM | 1.1 ± 0.1 | 130 ± 5.9 µM | 0.050 ± 0.002 Fe2+eq | 272 µM | 0.54 | 147 µM | 52.4 ± 4.5 µM | - | - | - | 0.71 ± 0.02 CEAC | 1.25 ± 0.01 GAE | IC50 [3]: > 200 µM

From paper PMC9738062, “Selectively Halogenated Flavonolignans—Preparation and Antibacterial Activity” (International Journal of Molecular Sciences, 2022)
